Data taken from article PMC4032190 (Journal of medicinal chemistry, 2014).

What was measured:
XBP-1s expression [1] = test: Inhibition of XBP-1s expression in LPS-stimulated wild-type mouse B cells; format: cell-based; settings: immunoblot
[2] = target: recombinant human IRE-1 (RNase activity) (Homo sapiens, UniProt O75460); test: In vitro IRE-1 RNase FRET-suppression assay; format: biochemical; settings: up to 20 µM
[3] = Chemical stability in FRET-suppression assay buffer; settings: rt, over 12 hours, LCMS
Mino cells = test: PARP cleavage; format: cell-based, human; settings: 50 µM, 72 h, immunoblot
Jeko cells = test: PARP cleavage; format: cell-based, human; settings: 50 µM, 72 h, immunoblot
XBP-1s expression [4] = test: Inhibition of XBP-1s expression in Mino cells; format: cell-based, human; settings: 20 µM, 24 h, immunoblot
XBP-1s expression [5] = test: Inhibition of XBP-1s expression in Jeko cells; format: cell-based, human; settings: 20 µM, 24 h, immunoblot

recombinant human IRE-1 (RNase activity), sequence (O75460 547-977): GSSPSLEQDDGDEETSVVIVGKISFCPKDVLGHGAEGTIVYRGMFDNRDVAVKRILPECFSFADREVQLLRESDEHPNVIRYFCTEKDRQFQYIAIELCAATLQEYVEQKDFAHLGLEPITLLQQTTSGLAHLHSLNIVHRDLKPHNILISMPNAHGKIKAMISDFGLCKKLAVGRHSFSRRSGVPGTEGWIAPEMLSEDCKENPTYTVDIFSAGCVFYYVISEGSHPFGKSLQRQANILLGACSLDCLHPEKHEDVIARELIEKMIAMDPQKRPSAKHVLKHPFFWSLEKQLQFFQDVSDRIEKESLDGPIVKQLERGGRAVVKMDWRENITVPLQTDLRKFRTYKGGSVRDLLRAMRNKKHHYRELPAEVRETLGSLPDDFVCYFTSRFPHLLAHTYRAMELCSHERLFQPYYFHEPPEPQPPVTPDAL

In the case of `O=Cc1c(O)ccc2ccccc12` [Compound 2], the “inhibition of XBP-1s expression” value (XBP-1s expression [1]; 50 µM) is reported as “strong inhibition”.

For `Cc1cc(=O)oc2c(C=O)c(O)ccc12` [Compound 5], the “inhibition of XBP-1s expression” value (XBP-1s expression [1]; 20 µM, 24 h) was “strong inhibition”.

With `NS(=O)(=O)c1cccs1` [Compound 8, reference compound] the “IRE-1 RNase inhibition (in words)” value [2] was “no appreciable inhibition”.

In the case of `C=CCOC(=O)N1CCc2c(c(=O)oc3c(C4OCCCO4)c(O)ccc23)C1` [Compound 24, Allyl 7-(1,3-dioxan-2-yl)-8-hydroxy-5-oxo-4,5-dihydro-1H-chromeno[3,4-c]pyridine-3(2H)-carboxylate], the “decomposition of the 1,3-dioxane moiety” value [3] is reported as “no significant decomposition”.

In the case of `C=CCOC(=O)N1CCc2c(c(=O)oc3c(C=O)c(OCc4ccccc4)ccc23)C1` [Compound 27, Allyl 7-formyl-8-benzyloxy-5-oxo-4,5-dihydro-1H-chromeno[3,4-c]pyridine-3(2H)-carboxylate], the “IRE-1 RNase inhibition (in words)” value [2] is reported as “complete loss of potency below 20 µM”.

For `CN1CCc2c(c(=O)oc3c(C=O)c(O)ccc23)C1` [Compound 30, 8-Hydroxy-3-methyl-5-oxo-2,3,4,5-tetrahydro-1H-chromeno[3,4-c]pyridine-7-carbaldehyde], the PARP cleavage (Mino cells) was “more strongly than either 21b or 5” and the PARP cleavage (Jeko cells) was “more strongly than either 21b or 5”.

With `C=C(C)CN1CCc2c(c(=O)oc3c(C=O)c(O)ccc23)C1` [Compound 33, 8-Hydroxy-3-(2-methylallyl)-5-oxo-2,3,4,5-tetrahydro-1H-chromeno[3,4-c]pyridine-7-carbaldehyde] the “suppression of XBP-1s expression” value (XBP-1s expression [4]) was “significant activity” and the “suppression of XBP-1s expression” value (XBP-1s expression [5]) was “significant activity”.
